The nature of data set [1]: Photophysical property of the compound assessed as fluorescence quantum yield. In kind it is physicochemical.
Data set [2] can be described thus: Induction of type-1 ROS generation in tetrahydrofuran at 0.5 uM followed by LED white light irradiation at 1.8 mWcm/2 for 300 sec by DCFH staining based analysis. In kind it is functional.
In data set [3] the test system is A549. Put plainly: Phototoxicity against human A549 cells assessed as reduction in cell proliferation at 0.156 to 10 uM irradiated with LED light at 1.8 mWcm/2 for 2 hrs and measured after 24 hrs under normoxia condition by MTT assay. The format is functional, cell-based. To be noted: dose 0.156-10 µM, time 26.0 hrs. A general note: Tetrazolium assays rely on reduction of a dye to a coloured formazan, in cell work by metabolically active cells.

The nature of data set [4]: Developmental toxicity in wild type AB zebrafish assessed as hatching rate at 50 uM incubated for 72 hrs followed by LED light irradiation at 1.8 mW cm/2 relative to control. Details: species or system Danio rerio. To be noted: in vivo.
Data set [5] in a line: Developmental toxicity in wild type AB zebrafish assessed as survival rate at 50 uM incubated for 72 hrs followed by LED light irradiation at 1.8 mW cm/2 relative to control. The note with it: in vivo. On the set-up: species or system Danio rerio.
Data set [6] is described as follows: Developmental toxicity in wild type AB zebrafish assessed as survival rate at 50 uM incubated for 72 hrs under condition relative to control. On the set-up: species or system Danio rerio. To be noted: in vivo.
For data set [7], the system named is A549. The experiment in a line: Induction of intracellular ROS generation in human A549 cells by measuring red fluorescence at 0.4 to 1.2 uM incubated for 24 hrs under dark condition by DHE based fluorescence microscopy analysis. In kind it is functional, cell-based. To be noted: dose 0.4-1.2 µM.
The subject of another data set is Mitochondrial membrane. The experiment in a line: Induction of mitochondrial membrane potential loss in human A549 cells assessed as increase in green fluorescence of JC-1 monomers at 0.4 to 1.2 uM incubated for 24 hrs with irradiation of LED light at 1.8 mW cm/2 by light microscopy analysis. In kind it is cell membranes. The note with it: dose 0.4-1.2 µM.
Data set [8] concerns A549. Put plainly: Induction of apoptosis in human A549 cells assessed as increase in nuclear shrinkage at 2.5 to 5 uM incubated for 30 mins with irradiation of LED light at 1.8 mW cm/2 by Hoechst 33342 staining based light microscopy analysis. In kind it is functional, cell-based. The note with it: dose 2.5-5 µM.
Data set [9] has as its system A549. The experiment in a line: Induction of apoptosis in human A549 cells assessed as downregulation of Bcl-2 expression at 2.5 to 5 uM with irradiation of LED light at 1.8 mW cm/2 by Western blot analysis. The format is functional, cell-based. The note with it: dose 2.5-5 µM. A general note: Immunoblotting shows a protein as a band on a membrane.
For data set [10], the system named is A549. The experiment in a line: Induction of apoptosis in human A549 cells assessed as upregulation of cleaved PARP expression at 2.5 to 5 uM with irradiation of LED light at 1.8 mW cm/2 by Western blot analysis. The format is functional, cell-based. The note with it: dose 2.5-5 µM.
In data set [11] the test system is A549. The experiment in a line: Activation of MAPK pathway in human A549 cells assessed as effect on MAPK protein expression at 2.5 to 5 uM by Western blot analysis. In kind it is cell-based. The note with it: filed as activator, dose 2.5-5 µM.
In data set [12] the test system is A549. The experiment in a line: Activation of MAPK pathway in human A549 cells assessed as increase in MAPK phosphorylation level at 2.5 to 5 uM by Western blot analysis. The format is cell-based. The note with it: filed as activator, dose 2.5-5 µM.

From ChEMBL document CHEMBL6096699, “Tröger's Base as a Potential Bridge to Type-I Photosensitizers: Mechanism and Antitumor Applications” (J Med Chem, 2025) come the findings set out here.

Each structure is given as a SMILES string. Calls of active or inactive are those of the source. No cut-off for these calls is given here.

Consider `CCN(CC)c1ccc2cc(C(=O)/C=C/c3ccc4c(c3)CN3CN4Cc4cc(Br)ccc43)c(=O)oc2c1`, for which the Fluorescence quantum yield in data set [1] is 0.12. Besides, the outcome (in [2]; with A549 [3]; in the data set on Mitochondrial membrane; in the data set on A549 [8]; in the data set on A549 [9]; in the data set on A549 [10]) was Active. The result with A549 [12] was Active. Moreover, the Activity is reported as 100% in [4] and “Active; Compound Showed Little Change In Protein Expression” in the data set on A549 [11]. The survival at 72 h, 50 µM in data set [5] and in [6] was 100% each time. Also, the result in the data set on A549 [7] was inactive.
